Data reported in patent US8546414B2, “Ion channel modulators and methods of use” (Vertex Pharmaceuticals Incorporated, priority 2004, dated 2013).

Key:
Type in all cases: cell-based
CaV2.2 = molecular target: T1, CaV2.2 (Homo sapiens, UniProt Q00975); assay: VIPR optical membrane potential assay with electrical stimulation, CaV2.2; details: Table 9, CaV 2.2 receptors
T1 construct: expressed in transfected cells; host or cells: HEK293
Method in brief: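 HEK293 cells stably expressing CaV2.2 stained with CC2-DMPE/DiSBAC2(3) voltage-sensitive dyes (10 μM final CC2-DMPE, 30 min, RT), then compound added and cells electrically stimulated for 3-5 s. Read-out: background-subtracted 460/580 nm emission ratio; response R=Rf/Ri (post- vs pre-stimulus ratio); antagonism seen as reduced response.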

NaV1.3 = molecular target: T2, NaV1.3 (Homo sapiens, UniProt Q9NY46); assay: VIPR optical membrane potential assay with electrical stimulation, NaV1.3; details: Table 9, NaV 1.3 receptors
T2 construct: expressed in transfected cells; host or cells: HEK293
Method in brief: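 HEK293 cells stably expressing NaV1.3, stained with CC2-DMPE (10 μM final) then DiSBAC2(3) with ABSC1, 30 min each at RT; compounds added with oxonol. Electrical stimulation for 3 s; 460/580 nm background-subtracted emission ratio Rf/Ri, normalised to tetracaine (positive) and untreated (negative) controls.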

NaV1.8 = NaV1.8 (Homo sapiens, UniProt Q9Y5Y9); assay: VIPR optical membrane potential assay, NaV1.8 (other subtypes in an analogous mode); details: Table 9, NaV 1.8 receptors
Description: Antagonist properties of test compounds were assessed as follows. Cells expressing the NaV of interest were placed into microtiter plates. After an incubation period, the cells were stained with fluorescent dyes sensitive to the transmembrane potential. The test compounds were added to the microtiter plate. The cells were stimulated with either chemical or electrical means to evoke a NaV dependent membrane potential change from unblocked channels, which was detected and measured with trans-membrane potential-sensitive dyes. Antagonists were detected as a decreased membrane potential response to the stimulus.
24 hours before the assay on VIPR, CHO cells endogenously expressing a NaV 1.2 type voltage-gated NaV are seeded in 96-well poly-lysine coated plates at 60,000 cells per well. […] Plates are incubated in the dark for 30 minutes at room temperature. • 4) While the cells are being stained with coumarin, a […] oxonol solution in BS#2 is prepared. […] As before, the residual volume should be 40 μL. • 6) Upon removing the bath, the cells are loaded with 80 μL of the DiSBAC2(3) solution, after which test compound, dissolved in DMSO, is added to achieve the desired test concentration to each well from the drug addition plate and mixed thoroughly. The volume in the well should be roughly 121 μL. The cells are then incubated for 20-30 minutes. • 7) Once the incubation is complete, the cells are ready to be assayed on VIPR® with a sodium addback protocol. 120 μL of Bath solution #1 is added to stimulate the NaV dependent depolarization. […] tetracaine was used as an antagonist positive control for block of the NaV channel. Analysis of VIPR® Data:
The following is an example of how NaV1.3 inhibition activity is measured using the optical membrane potential method#2. Other subtypes are performed in an analogous mode in a cell line expressing the NaV of interest.

T2 sequence (Q9NY46 whole entry): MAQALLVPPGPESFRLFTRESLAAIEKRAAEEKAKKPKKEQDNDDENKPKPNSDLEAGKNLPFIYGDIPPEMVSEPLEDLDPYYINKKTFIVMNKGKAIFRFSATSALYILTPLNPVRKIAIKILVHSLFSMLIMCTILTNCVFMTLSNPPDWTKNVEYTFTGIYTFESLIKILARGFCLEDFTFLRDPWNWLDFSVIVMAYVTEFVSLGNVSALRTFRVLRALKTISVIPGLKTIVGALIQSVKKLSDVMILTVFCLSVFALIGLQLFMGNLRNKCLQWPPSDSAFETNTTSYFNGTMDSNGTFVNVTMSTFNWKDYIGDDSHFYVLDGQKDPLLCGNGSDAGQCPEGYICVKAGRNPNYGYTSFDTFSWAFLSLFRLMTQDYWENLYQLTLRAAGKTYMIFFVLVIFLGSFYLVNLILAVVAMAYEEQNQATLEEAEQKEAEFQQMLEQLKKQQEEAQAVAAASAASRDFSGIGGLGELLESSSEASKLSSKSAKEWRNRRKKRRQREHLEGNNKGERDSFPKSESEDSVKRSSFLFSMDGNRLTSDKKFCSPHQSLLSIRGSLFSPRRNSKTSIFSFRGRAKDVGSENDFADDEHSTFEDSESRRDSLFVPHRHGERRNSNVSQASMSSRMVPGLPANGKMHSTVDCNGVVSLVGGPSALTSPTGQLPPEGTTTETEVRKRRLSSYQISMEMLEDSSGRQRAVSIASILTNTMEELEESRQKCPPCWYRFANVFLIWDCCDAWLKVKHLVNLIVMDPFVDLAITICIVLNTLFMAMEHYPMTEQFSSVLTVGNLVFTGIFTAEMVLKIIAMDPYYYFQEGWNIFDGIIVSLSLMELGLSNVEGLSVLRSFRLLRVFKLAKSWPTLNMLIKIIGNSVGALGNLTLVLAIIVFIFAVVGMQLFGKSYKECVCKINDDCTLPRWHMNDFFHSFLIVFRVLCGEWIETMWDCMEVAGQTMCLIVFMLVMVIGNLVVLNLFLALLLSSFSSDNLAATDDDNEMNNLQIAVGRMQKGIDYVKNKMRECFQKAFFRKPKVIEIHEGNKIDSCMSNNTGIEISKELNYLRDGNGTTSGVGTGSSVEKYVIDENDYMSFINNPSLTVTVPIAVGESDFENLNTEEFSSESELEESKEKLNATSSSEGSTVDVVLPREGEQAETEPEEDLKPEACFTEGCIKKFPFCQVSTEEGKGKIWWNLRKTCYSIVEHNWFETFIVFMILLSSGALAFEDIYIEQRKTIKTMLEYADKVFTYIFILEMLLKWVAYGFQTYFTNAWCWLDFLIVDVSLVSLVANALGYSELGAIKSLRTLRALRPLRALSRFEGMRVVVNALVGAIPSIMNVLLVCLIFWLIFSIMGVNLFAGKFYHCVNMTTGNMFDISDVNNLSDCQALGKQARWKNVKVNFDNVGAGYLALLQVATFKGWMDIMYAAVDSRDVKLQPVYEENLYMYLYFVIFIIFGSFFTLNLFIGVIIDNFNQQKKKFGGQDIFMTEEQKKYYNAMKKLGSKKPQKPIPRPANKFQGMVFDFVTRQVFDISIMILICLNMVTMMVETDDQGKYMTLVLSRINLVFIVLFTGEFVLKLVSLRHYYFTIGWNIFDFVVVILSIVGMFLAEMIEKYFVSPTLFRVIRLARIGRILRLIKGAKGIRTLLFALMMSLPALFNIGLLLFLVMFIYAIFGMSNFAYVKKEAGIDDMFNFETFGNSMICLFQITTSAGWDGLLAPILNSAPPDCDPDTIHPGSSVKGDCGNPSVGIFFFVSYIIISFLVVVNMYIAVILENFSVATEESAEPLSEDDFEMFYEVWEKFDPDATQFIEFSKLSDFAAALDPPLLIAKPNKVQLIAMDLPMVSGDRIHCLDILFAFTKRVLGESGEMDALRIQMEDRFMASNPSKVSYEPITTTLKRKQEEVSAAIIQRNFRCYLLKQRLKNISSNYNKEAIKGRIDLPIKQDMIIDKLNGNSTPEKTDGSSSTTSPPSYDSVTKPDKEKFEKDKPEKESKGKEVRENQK
Sequence of NaV1.8 (Q9Y5Y9 whole entry): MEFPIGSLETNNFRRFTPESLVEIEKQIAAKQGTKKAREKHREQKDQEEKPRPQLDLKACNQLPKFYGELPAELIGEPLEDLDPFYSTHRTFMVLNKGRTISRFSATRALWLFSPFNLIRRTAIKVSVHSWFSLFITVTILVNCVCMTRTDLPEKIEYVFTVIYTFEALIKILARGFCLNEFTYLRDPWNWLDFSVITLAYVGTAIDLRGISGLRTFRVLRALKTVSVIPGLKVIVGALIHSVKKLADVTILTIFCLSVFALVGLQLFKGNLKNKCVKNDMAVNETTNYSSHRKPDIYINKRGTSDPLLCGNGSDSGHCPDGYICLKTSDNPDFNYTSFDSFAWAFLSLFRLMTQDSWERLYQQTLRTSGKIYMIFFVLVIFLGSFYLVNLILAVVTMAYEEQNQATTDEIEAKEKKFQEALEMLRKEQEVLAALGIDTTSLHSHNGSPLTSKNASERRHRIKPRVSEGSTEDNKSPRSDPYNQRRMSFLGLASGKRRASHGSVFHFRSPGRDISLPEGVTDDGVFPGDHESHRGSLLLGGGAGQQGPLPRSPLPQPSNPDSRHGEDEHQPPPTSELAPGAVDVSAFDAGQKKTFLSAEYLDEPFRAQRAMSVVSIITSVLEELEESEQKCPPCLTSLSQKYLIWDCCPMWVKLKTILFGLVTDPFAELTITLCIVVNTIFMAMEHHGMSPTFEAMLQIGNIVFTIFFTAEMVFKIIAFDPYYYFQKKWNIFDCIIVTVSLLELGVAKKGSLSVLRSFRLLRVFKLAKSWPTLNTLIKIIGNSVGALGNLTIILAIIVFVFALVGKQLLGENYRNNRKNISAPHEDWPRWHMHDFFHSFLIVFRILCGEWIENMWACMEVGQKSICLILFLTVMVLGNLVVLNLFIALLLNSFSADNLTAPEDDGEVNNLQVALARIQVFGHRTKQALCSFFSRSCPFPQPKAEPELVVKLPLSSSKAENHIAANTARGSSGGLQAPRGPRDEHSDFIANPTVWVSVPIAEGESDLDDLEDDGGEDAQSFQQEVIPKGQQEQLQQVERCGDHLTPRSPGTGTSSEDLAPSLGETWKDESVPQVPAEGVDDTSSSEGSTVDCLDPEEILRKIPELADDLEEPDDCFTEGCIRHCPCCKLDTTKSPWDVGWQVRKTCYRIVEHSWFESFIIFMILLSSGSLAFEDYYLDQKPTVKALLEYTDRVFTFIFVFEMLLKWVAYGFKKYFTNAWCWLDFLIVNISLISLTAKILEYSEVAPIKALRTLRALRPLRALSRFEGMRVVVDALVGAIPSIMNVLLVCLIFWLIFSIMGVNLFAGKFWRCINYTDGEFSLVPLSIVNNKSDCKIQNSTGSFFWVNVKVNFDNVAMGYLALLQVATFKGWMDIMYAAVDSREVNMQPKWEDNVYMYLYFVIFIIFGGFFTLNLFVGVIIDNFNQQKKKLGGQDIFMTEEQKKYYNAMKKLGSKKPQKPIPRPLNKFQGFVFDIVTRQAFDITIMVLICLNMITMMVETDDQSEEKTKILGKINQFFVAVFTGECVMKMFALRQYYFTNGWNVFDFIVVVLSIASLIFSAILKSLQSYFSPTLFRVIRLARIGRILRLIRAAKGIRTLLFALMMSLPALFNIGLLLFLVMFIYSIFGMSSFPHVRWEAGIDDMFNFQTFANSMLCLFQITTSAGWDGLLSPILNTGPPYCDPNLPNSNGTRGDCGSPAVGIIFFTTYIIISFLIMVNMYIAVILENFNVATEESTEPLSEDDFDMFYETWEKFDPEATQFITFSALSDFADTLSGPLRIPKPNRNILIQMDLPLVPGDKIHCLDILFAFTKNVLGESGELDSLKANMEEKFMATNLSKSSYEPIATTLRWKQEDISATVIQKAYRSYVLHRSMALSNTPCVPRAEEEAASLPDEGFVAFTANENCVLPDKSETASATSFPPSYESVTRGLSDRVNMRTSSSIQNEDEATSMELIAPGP

IC50 (CaV2.2) [µM]	IC50 (NaV1.3) [µM]	IC50 (NaV1.8) [µM]	Compound
2 to 10	2 to 10	> 10	Cc1cccc(CN(C(=O)c2c(C)nc(N3CCOCC3)nc2-c2ccccc2F)C2CC2)c1 [compound 10]
2 to 10	2 to 10	> 10	CC(C)N(C(=O)c1cnc(N2CCC3CCCCC3C2)nc1-c1ccccc1F)c1cccc(C#N)c1 (stereo not drawn) [compound 54]
> 10	> 10	> 10	CC(C)N(C(=O)c1cnc(N2CCOCC2)nc1-c1ccccc1F)c1cccc(C#N)c1 [compound 202]
> 10	> 10	> 10	COc1cc2c(cc1OC)CN(C(=O)c1cnc(N3CCOCC3)nc1-c1ccccc1F)CC2 [compound 144]
2 to 10	2 to 10	> 10	COc1ccc(CN(C(=O)c2cnc(N3CCCCC3)nc2-c2ccccc2Cl)C2CC2)cc1 [compound 36]
< 2	2 to 10	2 to 10	CC(C)N(Cc1ccccc1)C(=O)c1cnc(N2CCc3ccccc3C2)nc1-c1ccccc1F [compound 78]
< 2	2 to 10	2 to 10	CC(C)N(Cc1ccc(C(C)(C)C)cc1)C(=O)c1cnc(N2CCSCC2)nc1-c1ccccc1F [compound 59]
> 10	> 10	> 10	O=C(NC1CC1c1ccccc1)c1cnc(N2CCOCC2)nc1-c1ccccc1F (stereo not drawn) [compound 97]
> 10	> 10	> 10	CC(C)Oc1ccc(-c2nc(N3CCOCC3)ncc2C(=O)N(Cc2ccccc2)C(C)C)cc1 [compound 170]
< 2	2 to 10	> 10	CC(C)N(Cc1ccccc1)C(=O)c1cnc(NCCc2ccc(F)cc2)nc1-c1ccccc1F [compound 118]
2 to 10	2 to 10	> 10	O=C(c1cnc(N2CCSCC2)nc1-c1ccccc1F)N(Cc1ccccc1)C1CCCC1 [compound 157]
< 2	2 to 10	2 to 10	COc1cccc(CN(C(=O)c2cnc(N3CCCCC3)nc2-c2ccccc2F)C(C)C)c1 [compound 20, 4-(2-fluorophenyl)-N-isopropyl-N-(3-methoxybenzyl)-2-(piperidin-1-yl)pyrimidine-5-carboxamide]
2 to 10	2 to 10	> 10	COc1cccc(N(C(=O)c2cnc(N3CCCCC3)nc2-c2ccccc2F)C2CCC2)c1 [compound 116]
2 to 10	2 to 10	> 10	O=C(c1cnc(N2CCOCC2)nc1-c1ccccc1F)N(Cc1ccc2c(c1)CCO2)C1CC1 [compound 53]
> 10	> 10	> 10	O=C(c1cnc(N2CCOCC2)nc1-c1ccccc1F)N1Cc2ccccc2C1 [compound 187]
2 to 10	2 to 10	2 to 10	CC(C)N(Cc1ccccc1)C(=O)c1cnc(N2CCOCC2)nc1-c1cc(F)cc(F)c1 [compound 139]
2 to 10	> 10	> 10	O=C(c1cnc(N2CCOCC2)nc1-c1ccccc1F)N(Cc1cccc(-c2ccncc2)c1)C1CC1 [compound 60]
> 10	> 10	> 10	CN1CCN(c2ncc(C(=O)N(Cc3ccc(F)cc3)C3CC3)c(-c3ccccc3F)n2)CC1 [compound 39]

IC50 (CaV2.2) [µM]	IC50 (NaV1.3) [µM]	IC50 (NaV1.8) [µM]	Compound
> 10	> 10	> 10	COc1cccc(N(C(=O)c2cnc(N3CCOCC3)nc2-c2ccccc2F)C2CCOCC2)c1 [compound 197]
> 10	> 10	> 10	N#CCCN(Cc1ccccc1)C(=O)c1cnc(N2CCOCC2)nc1-c1ccccc1F [compound 75]
2 to 10	2 to 10	2 to 10	COc1cccc(CN(C(=O)c2cnc(N3CCCCC3)nc2-c2ccccc2Cl)C(C)C)c1 [compound 55]
2 to 10	2 to 10	2 to 10	Cc1nc(N2CCOCC2)nc(-c2ccccc2F)c1C(=O)N(Cc1ccccc1)C1CCCC1 [compound 143]
2 to 10	2 to 10	2 to 10	CC(C)N(Cc1ccc2c(c1)OCO2)C(=O)c1cnc(N2CCCCC2)nc1-c1ccccc1Cl [compound 146]
2 to 10	2 to 10	> 10	CCC(COC)N(Cc1ccccc1)C(=O)c1cnc(N2CCSCC2)nc1-c1ccccc1F (stereo not drawn) [compound 81]
> 10	> 10	> 10	COc1cccc(N(C(=O)c2cnc(N3CCN(C)CC3)nc2-c2ccccc2F)C(C)C)c1 [compound 87]
2 to 10	2 to 10	> 10	Cc1nc(N2CCOCC2)nc(-c2ccccc2F)c1C(=O)N(Cc1ccc(F)cc1)C1CC1 [compound 9]
< 2	2 to 10	> 10	CC(C)N(Cc1ccccc1)C(=O)c1cnc(NCCc2cccc(C(F)(F)F)c2)nc1-c1ccccc1F [compound 173]
2 to 10	> 10	> 10	CC(C)N(Cc1ccccc1)C(=O)c1cnc(N2CCOCC2)nc1-c1ccc(Oc2ccccc2)cc1 [compound 123]
> 10	> 10	> 10	O=C(c1cnc(N2CCOCC2)nc1-c1ccccc1F)N(Cc1ccncc1)C1CC1 [compound 205]
2 to 10	> 10	> 10	O=C(c1cnc(N2CCOCC2)nc1-c1ccccc1F)N(Cc1cccc(F)c1)C1CC1 [compound 110]
> 10	2 to 10	> 10	CC(C)N(C(=O)c1cnc(N2CCCCC2)nc1-c1ccccc1Cl)c1cccc(C(C)(C)C)c1 [compound 3]
< 2	2 to 10	> 10	COc1ccc(N(C(=O)c2cnc(N3CCCCC3)nc2-c2ccccc2F)C(C)C)cc1 [compound 108]
2 to 10	2 to 10	2 to 10	O=C(c1cnc(N2CCOCC2)nc1-c1ccccc1F)N(Cc1ccccc1)C1CCCC1 [compound 159]
> 10	> 10	> 10	COc1cccc(OC)c1-c1nc(N2CCOCC2)ncc1C(=O)N(Cc1ccccc1)C(C)C [compound 89]
< 2	< 2	2 to 10	COc1cccc(CN(C(=O)c2cnc(NC(C)c3ccccc3)nc2-c2ccccc2F)C(C)C)c1 (stereo not drawn) [compound 188]
2 to 10	2 to 10	> 10	Cc1nc(N2CCOCC2)nc(-c2ccccc2F)c1C(=O)N(Cc1ccccc1)C1CC1 [compound 145]

Compound	IC50 (CaV2.2) [µM]	IC50 (NaV1.3) [µM]	IC50 (NaV1.8) [µM]
O=C(c1cnc(N2CCSCC2)nc1-c1ccccc1F)N(Cc1ccccc1)C1CCCCC1 [compound 47]	2 to 10	2 to 10	> 10
O=C(NC1CCCCC1)c1cnc(N2CCOCC2)nc1-c1ccccc1F [compound 196]	> 10	> 10	> 10
CC(C)N(Cc1ccccc1)C(=O)c1cnc(Nc2cccc(Cl)c2)nc1-c1ccccc1F [compound 177]	> 10	> 10	> 10
CCC(=O)C1(c2ccccc2)CCN(C(=O)c2cnc(N3CCOCC3)nc2-c2ccccc2F)CC1 [compound 57]	> 10	> 10	> 10
